Assay results as given in ChEMBL document CHEMBL5226286, “The application of isatin-based multicomponent-reactions in the quest for new bioactive and druglike molecules” (Eur J Med Chem, 2021).
In brackets after ≈: the same amount, converted by molar mass. Activity calls are given as the source filed them. No cut-off for these calls is given here.

Columns and labels:
Type in all cases: functional
Aspergillus niger = experiment: Antifungal activity against Aspergillus niger
Aspergillus flavus = experiment: Antifungal activity against Aspergillus flavus
[1] = system: Mycobacterium tuberculosis; experiment: Antimycobacterial activity against active stage of Mycobacterium tuberculosis H37Ra ATCC 25177 assessed as minimum inhibitory concentration by XTT assay
[2] = system: Mycobacterium tuberculosis; experiment: Antimycobacterial activity against dormant stage of Mycobacterium tuberculosis H37Ra ATCC 25177 assessed as minimum inhibitory concentration by XTT assay
Escherichia coli [3] = experiment: Antibacterial activity against Escherichia coli NCIM 2688 measured after 8 hrs
Pseudomonas aeruginosa [4] = experiment: Antibacterial activity against Pseudomonas aeruginosa NCIM […] measured after 8 hrs
Bacillus subtilis [5] = experiment: Antibacterial activity against Bacillus subtilis NCIM 2079 measured after 12 hrs
Staphylococcus aureus [6] = experiment: Antibacterial activity against Staphylococcus aureus NCIM 2010 measured after 12 hrs
Staphylococcus aureus [7] = experiment: Antibacterial activity against Staphylococcus aureus by disc diffusion method
Bacillus subtilis [8] = experiment: Antibacterial activity against Bacillus subtilis by disc diffusion method
Escherichia coli [9] = experiment: Antibacterial activity against Escherichia coli by disc diffusion method
Pseudomonas aeruginosa [10] = experiment: Antibacterial activity against Pseudomonas aeruginosa by disc diffusion method

Row | Compound | MIC [1] | MIC [2] | MIC90 (Escherichia coli [3]) | MIC90 (Pseudomonas aeruginosa [4]) | MIC90 (Bacillus subtilis [5]) | MIC90 (Staphylococcus aureus [6]) | also measured
1 | CC(C)CC1NC2(C(=O)Nc3ccccc32)C(C(=O)c2ccc(F)cc2)C1c1ccc(Br)cc1 (stereo not drawn) |  |  |  |  |  |  | MIC (Aspergillus niger): 30 µg/mL (≈ 57.5 µM); MIC (Aspergillus flavus): 20 µg/mL (≈ 38.4 µM)
2 | CC1(C)CC(=O)C2=C(C1)OC(N)=C(C#N)C21C(=O)N(Cc2cn(Cc3ccc(Cl)cc3)nn2)c2ccc(Br)cc21 (stereo not drawn) | > 50 µg/mL | 10.6 µg/mL (≈ 17.1 µM) | 2.86 µg/mL (≈ 4.61 µM) | 1.57 µg/mL (≈ 2.53 µM) | 3.18 µg/mL (≈ 5.13 µM) | 1.09 µg/mL (≈ 1.76 µM) | 
3 | Cc1ccc(Cn2cc(CN3C(=O)C4(C(C#N)=C(N)Oc5cc(C)oc(=O)c54)c4cc(Cl)ccc43)nn2)cc1 (stereo not drawn) | > 50 µg/mL | 11.6 µg/mL (≈ 21.4 µM) | 2.65 µg/mL (≈ 4.9 µM) | 4.88 µg/mL (≈ 9.02 µM) | 7.19 µg/mL (≈ 13.3 µM) | 2.41 µg/mL (≈ 4.45 µM) | 
4 | Cc1cc2c(c(=O)o1)C1(C(=O)N(Cc3cn(Cc4ccc(Cl)cc4)nn3)c3ccc(Cl)cc31)C(C#N)=C(N)O2 (stereo not drawn) | 5.39 µg/mL (≈ 9.6 µM) | 4.81 µg/mL (≈ 8.57 µM) |  |  |  |  | 
5 | CC1(C)CC(=O)C2=C(C1)N(c1ccccc1S)C(=O)C21C2=C(Nc3ccccc31)C(=O)CC(C)(C)C2 (stereo not drawn) |  |  |  |  |  |  | MIC (Staphylococcus aureus [7]): 225 µg/mL (≈ 451 µM); MIC (Bacillus subtilis [8]): 2.5 µg/mL (≈ 5.01 µM); MIC (Escherichia coli [9]): 188 µg/mL (≈ 376 µM); MIC (Pseudomonas aeruginosa [10]): 150 µg/mL (≈ 301 µM)
6 | CC1(C)CC(=O)C2=C(C1)N(c1c(Br)cc(Br)cc1Br)C(=O)C21C2=C(Nc3ccccc31)C(=O)CC(C)(C)C2 (stereo not drawn) |  |  |  |  |  |  | MIC (Staphylococcus aureus [7]): 100 µg/mL (≈ 142 µM); MIC (Bacillus subtilis [8]): 62.5 µg/mL (≈ 88.9 µM); MIC (Escherichia coli [9]): 37.5 µg/mL (≈ 53.3 µM); MIC (Pseudomonas aeruginosa [10]): 50 µg/mL (≈ 71.1 µM)
7 | Cc1ccc(Cn2cc(CN3C(=O)C4(C(C#N)=C(N)OC5=C4C(=O)CC(C)(C)C5)c4cc(Br)ccc43)nn2)cc1 (stereo not drawn) | 29.2 µg/mL (≈ 48.8 µM) | 8.89 µg/mL (≈ 14.8 µM) |  |  |  |  | 
8 | NC[C@H]1O[C@H](O[C@H]2[C@H](O)[C@@H](O[C@H]3O[C@H](CO)[C@@H](O)[C@H](N)[C@H]3O)[C@H](N)C[C@@H]2N)[C@H](O)[C@@H](O)[C@@H]1O [KANAMYCIN] |  |  | 1.62 µg/mL (≈ 3.34 µM) | 0.49 µg/mL (≈ 1.01 µM) | 1.35 µg/mL (≈ 2.79 µM) | > 30 µg/mL | 
9 | Cc1cc2c(c(=O)o1)C1(C(=O)N(Cc3cn(Cc4ccc(Cl)cc4)nn3)c3ccc(Br)cc31)C(C#N)=C(N)O2 (stereo not drawn) | 6.63 µg/mL (≈ 10.9 µM) | 6.8 µg/mL (≈ 11.2 µM) | 2.75 µg/mL (≈ 4.54 µM) | 2.33 µg/mL (≈ 3.85 µM) | 5.27 µg/mL (≈ 8.7 µM) | 3.86 µg/mL (≈ 6.37 µM) | 
10 | Cc1ccc(Cn2cc(CN3C(=O)C4(C(C#N)=C(N)Oc5cc(C)oc(=O)c54)c4ccccc43)nn2)cc1 (stereo not drawn) | 14 µg/mL (≈ 27.6 µM) | 7.3 µg/mL (≈ 14.4 µM) | 1.97 µg/mL (≈ 3.89 µM) | 3.08 µg/mL (≈ 6.08 µM) | 2.85 µg/mL (≈ 5.63 µM) | 4.27 µg/mL (≈ 8.43 µM) | 
11 | CO[C@H]1/C=C/O[C@@]2(C)Oc3c(C)c(O)c4c(O)c(c(/C=N/N5CCN(C)CC5)c(O)c4c3C2=O)NC(=O)/C(C)=C\C=C\[C@H](C)[C@H](O)[C@@H](C)[C@@H](O)[C@@H](C)[C@H](OC(C)=O)[C@@H]1C [RIFAMPIN] | 0.51 µg/mL (≈ 0.62 µM) | 0.75 µg/mL (≈ 0.911 µM) |  |  |  |  | 
12 | CC(C)CC1NC2(C(=O)Nc3ccccc32)C(C(=O)c2ccc(F)cc2)C1c1ccc(Cl)cc1 (stereo not drawn) |  |  |  |  |  |  | MIC (Aspergillus niger): 20 µg/mL (≈ 41.9 µM); MIC (Aspergillus flavus): 20 µg/mL (≈ 41.9 µM)
13 | CC1(C)CC(=O)C2=C(C1)N(c1ccccc1F)C(=O)C21C2=C(Nc3ccccc31)C(=O)CC(C)(C)C2 (stereo not drawn) |  |  |  |  |  |  | MIC (Staphylococcus aureus [7]): inactive; MIC (Bacillus subtilis [8]): 75 µg/mL (≈ 155 µM); MIC (Escherichia coli [9]): 37.5 µg/mL (≈ 77.4 µM); MIC (Pseudomonas aeruginosa [10]): 50 µg/mL (≈ 103 µM)
14 | Cc1cc2c(c(=O)o1)C1(C(=O)N(Cc3cn(Cc4ccc(Cl)cc4)nn3)c3ccccc31)C(C#N)=C(N)O2 (stereo not drawn) | 5.21 µg/mL (≈ 9.89 µM) | 4.39 µg/mL (≈ 8.33 µM) |  |  |  |  | 
15 | COc1ccccc1N1C(=O)C2(C3=C(Nc4ccccc42)C(=O)CC(C)(C)C3)C2=C1CC(C)(C)CC2=O (stereo not drawn) |  |  |  |  |  |  | MIC (Staphylococcus aureus [7]): 75 µg/mL (≈ 151 µM); MIC (Bacillus subtilis [8]): 75 µg/mL (≈ 151 µM); MIC (Escherichia coli [9]): 175 µg/mL (≈ 352 µM); MIC (Pseudomonas aeruginosa [10]): 100 µg/mL (≈ 201 µM)
16 | CC1(C)CC(=O)C2=C(C1)OC(N)=C(C#N)C21C(=O)N(Cc2cn(Cc3ccc(Cl)cc3)nn2)c2ccc(Cl)cc21 (stereo not drawn) | > 50 µg/mL | 8.07 µg/mL (≈ 14 µM) | 1.78 µg/mL (≈ 3.09 µM) | 5.29 µg/mL (≈ 9.19 µM) | 1.14 µg/mL (≈ 1.98 µM) | 3.55 µg/mL (≈ 6.17 µM) | 
17 | CC1(C)CC(=O)C2=C(C1)N(c1ccccn1)C(=O)C21C2=C(Nc3ccccc31)C(=O)CC(C)(C)C2 (stereo not drawn) |  |  |  |  |  |  | MIC (Staphylococcus aureus [7]): 125 µg/mL (≈ 267 µM); MIC (Bacillus subtilis [8]): 50 µg/mL (≈ 107 µM); MIC (Escherichia coli [9]): 62 µg/mL (≈ 133 µM); MIC (Pseudomonas aeruginosa [10]): inactive
18 | CC(C)CC1NC2(C(=O)Nc3ccccc32)C(C(=O)c2ccc(F)cc2)C1c1ccccc1 (stereo not drawn) |  |  |  |  |  |  | MIC (Aspergillus niger): 20 µg/mL (≈ 45.2 µM); MIC (Aspergillus flavus): 20 µg/mL (≈ 45.2 µM)
